Experimental findings from US11564875B2, “Cosmetic composition for skin regeneration” (Amorepacific Corporation, priority 2018, dated 2023) are described below.

Molecules are shown by their SMILES.

Data set [1] deals with AQP3, PPAR-α, PPAR-β, K5, and K14 gene level in human keratinocyte cell line (HaCaT cells). Kind of data set: Skin regeneration effect after ultraviolet (UV) irradiation: gene level changes in UVA-irradiated HaCaT cells. The following applies: for skin regeneration effect: HaCaT cells. It counts as cell-based. From the text: A human keratinocyte cell line (HaCaT cells) was irradiated with ultraviolet (UVA) (2 J/cm^2, 3 J/cm^2) and then, treated with a compound represented by Chemical Formula 1-1 (camellenodiol), which was obtained by extracting 10 kg of dry camellia powder with water-soluble ethanol and subsequently, performing filtration, concentration under a reduced pressure, and purification by using HP-20 and silica chromatography, to exam AQP3, PPAR-α, PPAR-β, K5, and K14 gene level changes, and the results are shown in FIGS. 1 to 4.

Data set [2] can be described thus: Cytotoxicity evaluation using a serum-free media. It counts as cell-based. The protocol:
A cytotoxicity evaluation of the compound represented by Chemical Formula 1-1 was twice performed by using a serum-free media, and the results are shown in FIGS. 5 and 6. Referring to FIGS. 5 and 6, a significant cytotoxicity concentration of the compound represented by Chemical Formula 1-1 was 20 μM (cell viability<80%).

As usually defined, the cell viability is the share of living cells, or the viability signal relative to a control. A high value points to better survival. As for `CC1(C)CC[C@]2(O)C(=O)C[C@]3(C)C(=CC[C@@H]4[C@@]5(C)CC[C@H](O)C(C)(C)[C@@H]5CC[C@]43C)[C@@H]2C1` [Chemical Formula 1-1, camellenodiol], the “levels of the genes (AQP3, PPAR-α, PPAR-β, K5, K14)” value in data set [1] (HaCaT cells after UVA irradiation (2 J/cm^2, 3 J/cm^2), compound at 5 μM to 10 μM, specifically 7.5 μM, FIGS. 1 to 4) is reported as “significantly increased”. The skin regeneration effect result in data set [1] (UVA 2 J/cm^2, compound at 7.5 μM to 10 μM) is recorded as “excellent skin regeneration effect”; in data set [1] (UVA 3 J/cm^2, compound at 5 μM to 7.5 μM), “excellent skin regeneration effect”. Moreover, in data set [2] (at 20 μM), the cell viability is listed as less than 80%. The compound also had a significant cytotoxicity concentration in data set [2] (performed twice, criterion cell viability<80%, FIGS. 5 and 6) of 20 µM.
